Like-named read-outs stand apart in the source and are kept apart here.
Columns and labels:
[1] = system: EGFR L858R/T790M/C797S Ba/F3 cell line; experiment: Ba/F3 cell proliferation (MTS assay), EGFR L858R/T790M/C797S; type: cell-based, murine
Protocol: (§1) The EGFR mutant L858R, Del E746_A750, L858R/T790M, DelE746_A750/T790M, L858R/T790M/C797S and Del/T790M/C797S Ba/F3 cells were previously described (Zhou et al., Nature 462, (2009), 1070-1074). All cell lines were maintained in RPM 1640 (Cellgro; Mediatech Inc., Herndon, Calif.) supplemented with 10% FBS 100 units/mL penicillin, 100 units/mL streptomycin, and 2 mM glutamine. L858R cells were maintained in ACL-4 media (Invitrogen, Carlsbad, Calif.) supplemented with 5% FBS, 100 units/mL penicillin, 100 units/mL streptomycin, and 2 mM glutamine. The EGFR 1941R mutation was introduced via site directed mutagenesis using the Quick Change Site-Directed Mutagenesis kit (Stratagene: La Jolla, Calif.) according to the manufacturer's instructions. All constructs were confirmed by DNA sequencing. The constructs were shuttled into the retroviral vector JP1540 using the BD Creator™ System (BD Biosciences). Ba/F3 cells were infected with retrovirus and according to standard protocols, as described previously (Zhou 2009). Stable clones were obtained by selection in puromycin (2 μg/ml).
(§2) Growth and inhibition of growth was assessed by MTS assay and was performed according to previously established methods (Zhou 2009). The MTS assay is a colorimetric method for determining the number of viable cells that is based on the bioreduction of MTS by cells to a formazan product that is soluble in cell culture medium and can be detected spectrophotometrically. Ba/F3 cells of different EGFR genotypes were exposed to treatment and the number of cells used per experiment determined empirically and has been previously established (Zhou 2009). All experimental points were set up in six wells and all experiments were repeated at least three times. […] The curves were fitted using anon-linear regression model with a sigmoidal dose response.

[2] = biological target: T1, recombinant EGFR T790M/L858R kinase (Homo sapiens, UniProt P00533, L858R/T790M); experiment: HTRF-based EGFR biochemical assay
T1 construct: Constructs spanning residues 696-1022 of the human EGFR; GST (cleaved yes); made in house; host or cells: Sf9 insect cells
T1 sequence (P00533 696-1022 T790M/L858R): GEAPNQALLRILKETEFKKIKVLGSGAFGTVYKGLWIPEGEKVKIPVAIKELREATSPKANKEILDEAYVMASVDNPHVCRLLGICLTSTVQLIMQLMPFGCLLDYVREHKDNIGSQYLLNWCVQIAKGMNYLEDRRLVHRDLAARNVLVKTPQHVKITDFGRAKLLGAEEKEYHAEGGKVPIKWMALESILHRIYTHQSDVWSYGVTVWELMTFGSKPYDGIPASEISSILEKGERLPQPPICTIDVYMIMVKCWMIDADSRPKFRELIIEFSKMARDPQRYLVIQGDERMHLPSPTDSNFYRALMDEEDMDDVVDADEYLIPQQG
Protocol: EGFR kinase proteins were purified by glutathione-affinity chromatography followed by size-exclusion chromatography after cleavage with TEV or thrombin to remove the GST fusion partner following established procedures. (Yun 2008; Yun 2007).
EGFR biochemical assays were carried out using a homogeneous time-resolved fluorescence (HTRF) assay as described previously. The reaction mixtures contained 1 μM biotin-Lck-peptide substrate, wild type or mutant EGFR enzyme in reaction buffer (50 mM HEPES pH 7.1, 10 mM MgCl2, 0.01% BSA. 1 mM TCEP and 0.1 mM Na3VO4) at a final volume of 10 μL. […] All reactions were carried out at room temperature in white ProxiPlate™ 384-well Plus plates (PerkinElmer) and were quenched with 5 μL of 0.2 M EDTA at 60 min. Five μL per well of the detection reagent containing 2.5 ng PT66K (Cis-bio) and 0.05 μg SAXL (Prozyme) were added, and the plates were then incubated at room temperature for 1 hour and read with an EnVision plate reader.

[3] = biological target: T2, EGFR T790M/L858R Ba/F3 cell line (Homo sapiens, UniProt P00533, T790M/L858R, cells depend on it); experiment: Ba/F3 cell proliferation (MTS assay), EGFR T790M/L858R; type: cell-based, murine
T2 construct: "The constructs were shuttled into the retroviral vector JP1540 using the BD Creator™ System (BD Biosciences)
T2 sequence (P00533 whole entry T790M/L858R): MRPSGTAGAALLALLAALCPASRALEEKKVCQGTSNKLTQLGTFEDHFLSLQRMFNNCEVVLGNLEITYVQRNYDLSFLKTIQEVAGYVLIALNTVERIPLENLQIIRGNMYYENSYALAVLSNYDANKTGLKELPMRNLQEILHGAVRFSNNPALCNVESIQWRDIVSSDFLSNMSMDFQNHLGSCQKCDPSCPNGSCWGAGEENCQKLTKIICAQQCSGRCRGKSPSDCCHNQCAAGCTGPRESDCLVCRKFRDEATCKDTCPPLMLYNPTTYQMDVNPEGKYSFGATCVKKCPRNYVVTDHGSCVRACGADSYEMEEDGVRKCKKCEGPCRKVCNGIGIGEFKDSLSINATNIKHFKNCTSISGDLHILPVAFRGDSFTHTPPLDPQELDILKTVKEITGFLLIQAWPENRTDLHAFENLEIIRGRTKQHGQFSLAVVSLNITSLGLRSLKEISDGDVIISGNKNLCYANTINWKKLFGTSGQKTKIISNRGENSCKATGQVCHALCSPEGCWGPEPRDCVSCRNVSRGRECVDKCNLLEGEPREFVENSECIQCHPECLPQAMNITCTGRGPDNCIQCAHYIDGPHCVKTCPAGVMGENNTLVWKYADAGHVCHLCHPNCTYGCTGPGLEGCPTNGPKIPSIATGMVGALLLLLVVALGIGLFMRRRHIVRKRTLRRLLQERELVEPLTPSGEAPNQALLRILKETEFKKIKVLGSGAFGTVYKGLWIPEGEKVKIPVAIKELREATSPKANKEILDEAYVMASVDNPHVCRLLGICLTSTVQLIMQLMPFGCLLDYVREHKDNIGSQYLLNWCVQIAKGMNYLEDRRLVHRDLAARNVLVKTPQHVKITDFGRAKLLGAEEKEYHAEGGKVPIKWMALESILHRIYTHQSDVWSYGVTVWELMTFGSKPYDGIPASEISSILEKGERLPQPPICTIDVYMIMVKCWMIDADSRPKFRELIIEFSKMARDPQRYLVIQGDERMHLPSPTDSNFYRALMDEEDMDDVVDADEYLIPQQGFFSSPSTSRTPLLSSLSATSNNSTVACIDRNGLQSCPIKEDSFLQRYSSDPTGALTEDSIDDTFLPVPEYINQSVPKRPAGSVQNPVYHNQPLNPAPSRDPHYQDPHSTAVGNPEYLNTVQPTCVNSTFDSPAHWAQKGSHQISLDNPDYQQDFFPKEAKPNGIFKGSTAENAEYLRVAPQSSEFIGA
Protocol: as §1, with “All” for “The EGFR mutant L858R, Del E746_A750, L858R/T790M, DelE746_A750/T790M, L858R/T790M/C797S and Del/T790M/C797S Ba/F3 cells were previously described (Zhou et al., Nature 462, (2009), 1070-1074). All”, “L858R cells were maintained in ACL-4 media (Invitrogen, Carlsbad, Calif.) supplemented with 5% FBS, 100 units/mL penicillin, 100 units/mL streptomycin, and 2 mM glutamine.” left out
as §2, with “Ba/F3 cells of different EGFR genotypes were exposed to treatment and the number of cells used per experiment determined empirically and has been previously established (Zhou 2009).” left out

In the case of `O=C1c2cc(-c3ccc4[nH]ccc4c3)ccc2Nc2ccc(F)cc2N1c1ccccc1` [Compound I-8], the “Activity (% cetuximab); inhibition of proliferation” value ([1]; compound at 1 μM in the presence of 1 μg/mL cetuximab, EGFR L858R/T790M/C797S) is reported as “D (75 ≤ D)”, the “Activity (% DMSO control); inhibition of proliferation” value ([1]; compound at 1 μM, EGFR L858R/T790M/C797S Ba/F3) is reported as “D (75 ≤ D)” and the IC50 [2] is reported as ≥ 750 nM. For the same compound, the EC50 ([3]; absence of cetuximab, read-out: Ba/F3 cellular activity (EC50) T790M/L858R) was ≥ 750 nM, the “Activity (% cetuximab); inhibition of proliferation” value ([3]; compound at 1 μM in the presence of 1 μg/mL cetuximab, EGFR T790M/L858R Ba/F3) was “D (75 ≤ D)” and the “Activity (% DMSO control); inhibition of proliferation” value ([3]; compound at 1 μM, EGFR T790M/L858R Ba/F3) was “D (75 ≤ D)”. The EC50 ([3]; read-out: Ba/F3 cellular activity (EC50) T790M/L858R + Cetuximab (1 μg/mL), presence of 1 μg/mL cetuximab) was ≥ 750 nM.

Reference: patent US20200375999A1, “PHARMACEUTICAL COMBINATIONS OF EGFR INHIBITORS AND METHODS OF USE THEREOF” (DANA-FARBER CANCER INSTITUTE, INC., priority 2018, published 2020)
